Results on one molecule are retold here after paper PMC5766510, “Development of a PET radioligand for potassium channels to image CNS demyelination” (Scientific Reports, 2018).

For data set [1], the target named is non-inactivating Shaker channel from D. melanogaster (Drosophila melanogaster, UniProt P08510, DEL6-46). The data set can be described thus: cell-based. The following applies: relative K^+ current at +20 mV, Hill equation fit; read-out: Half-maximal inhibitory concentration (IC50). As for the experimental part:
See SI for additional details.
(§1) CI95 = [Upper Limit. Lower Limit]; where Upper Limit = 10^(logEC50+s.d.) and Lower Limit = 10^(logEC50−s.d.). […]
exchanging the external solution (top and guard chambers) several times. After application, cells were voltage-clamped at least 5 min at 0mV, then voltage-clamped at -80mV for 1-2 min.
K+ currents were generated by applying series of 50 ms pulses from -70 mV to +40 mV in increments of 10 mV. The effect of the drug was assessed by measuring the relative intensity of the K+ current before and after applying varying drug concentration at a constant voltage (typically +20 mV) and at the end of the test-pulse. Data acquisition and analysis of the traces was performed using Gpatch software (Department of Anesthesiology, University of California, […]
Los Angeles). […]

The subject of data set [2] is K^+ channels in explanted mouse optic nerves. The data set can be described thus: Compound action potential (CAP) of dissected mouse optic nerves. The following applies: increase of maximum CAP amplitude, dysmyelinated (Shiverer) optic nerves, 22.2 °C; read-out: Half-maximal effective concentration (EC50). As for the experimental part:
Therefore, we tested the effects of these compounds on the compound action potential (CAP) of dysmyelinated optic nerves from control and Shiverer mice (Fig. 2E).
Optic nerves were dissected from 12–16 week old Shiverer (Mbp^shi/shi) and control mice (Mbp^+/shi and Mbp^+/+). Compound action potentials (CAP) were recorded using suction electrodes as described by Stys et al.[91]. See SI for additional details.
as §1
Dissection of optic nerves: Optic nerves were dissected from 12-16 week old Shiverer (Mbpshi/shi) and control mice (Mbp+/shi and Mbp+/+). Mice were euthanized by CO2 overdose and the optic nerves were quickly dissected between the eyeball and the optic chiasm. The nerves […]
Optic nerve electrophysiology: Compound action potentials (CAP) from dysmyelinated nerves (Shiverer mice, Mbpshi/shi) and myelinated nerves (litermate controls, Mbp+/shi and Mbp+/+) were […]
between two suction electrodes (stimulus and recording electrodes) forming a tight seal on each end. Two additional electrodes were placed in the bath for reference. A supramaximal pulse (250 mV, 20 μs) was applied at the stimulating end of the nerve. The resulting CAP was amplified from the recording electrode using a high impedance low-noise amplifier (EG&G Princeton Applied Research Corporation) sampled at 100 kHz and filtered at 10 kHz. To assess […]
concentrations to the recording chamber after the CAP was allowed to stabilize for 5 min while […]
pulsing repeatedly. After each measurement, the chamber was washed for 5 min (flow 1 […]
mL/min) with oxygenated aCSF. […]
conduction and the temperature was monitored throughout the experiment. CAP recordings were acquired with a SBC6711 board (Innovative Integration) controlled by in-house written software. Analysis of the traces was done using an in-house software. The half-maximal […]
amplitude vs. concentration and fitted to the Hill equation using Origin. […]
Compound action potential of nerve recorded by suction electrode: a theoretical and experimental analysis. […]

Data set [3] can be described thus: Partition coefficient octanol-water (logD). The following applies: pH 7.4, pH 7.4, n = 3; read-out: logD: experimental partition coefficient octanol:water. In kind it is physicochemical. As for the experimental part:
The partition coefficient octanol-water at pH 7.4 was measured by adding 0.1 mg of the compound to a 10 mL 50:50 mixture of octanol:PBS. The vial was shaken vigorously followed by 1 min centrifugation at 1,000 g to separate the phases. The drug concentration in each phase of the drug was calculated from the area under the peak on reverse phase HPLC (10 μL sample) using a calibration curve.

The test system of data set [4] is C57Bl/6 J mice. The data set can be described thus: In vivo effects (signs of neuroexcitation) after intraperitoneal injection. The conditions noted are these: mouse, different doses. Here is the method: In this experiment, we injected each drug intraperitoneally at different concentrations into mice and looked for signs of neuroexcitation (Fig. 3B).
10-week-old female C57Bl/6 J mice were given an intraperitoneal injection of the drug under investigation and monitored continuously for 4 h. […] At least 72 h passed between injections to the same mice.

Data set [5] has as its system voltage-gated K^+ channels. The data set can be described thus: PET/CT imaging in healthy rats. It is filed as in vivo, rat. The conditions noted are these: rats. The text has this:
In order to evaluate the potential use of [^18F]3-F-4-AP as a PET tracer for the brain, we conducted PET combined with computed tomography (PET/CT) imaging in healthy rats after tail vein injection of [^18F]3-F-4-AP (0.15–0.30 μCi/g). We chose rats instead of mice because their larger brain size allows better spatial resolution. […] In order to overcome the limited intrinsic resolution of PET, we conducted ex vivo autoradiography in rats injected with [^18F]3-F-4-AP (1–2 μCi/g).
PET/CT imaging studies were carried out on a Trifoil Triumph™ Trimodality Preclinical microPET/SPECT/CT Imaging System (Norridge, CA) equipped with a X-PET detector constructed from BGO crystals. Rats were anesthetized with a mixture of 2% isoflurane and […] and kept under anesthesia throughout the whole procedure. A CT image was acquired first (at 40 kV, 140-uA beam current, and 256 projections, approx. 5 min). After the CT, 50–150 µCi of [^18F]3-F-4-AP was infused as a bolus through a tail vein injection port and a 25, 30 or 90 min list-mode PET scan performed. PET data are acquired using a sensitivity 5.9%, 250- to 750-keV energy window and 12-ns timing window in list-mode format with spatial resolution of 1.6–2.0 mm (FWHM), which can be binned into 3-dimensional (3D) sinograms corresponding to total and true events, respectively. Images were reconstructed using Fourier rebinning followed by a 2-dimensional ordered-subsets expectation maximization algorithm (OSEM) (4 iterations with 15 subsets). Reconstructed images were processed by using VivoQuant (inviCRO, LLC, Boston) version 2.1. Time activity curves were generated by processing the PET data in 5 min frames.

Data set [6] relates to voltage-gated K^+ channels. The data set can be described thus: PET imaging in healthy Rhesus macaques. It is filed as in vivo, Rhesus monkeys (macaca mulatta). As for the experimental part:
Whole body PET/CT imaging was carried out on a Siemens mCT PET/CT. Monkeys were sedated with ketamine and intubated. Following intubation monkeys were placed in prone position on the scanner bed face forward with their head immobilized in a stereotaxic frame. The animals were then anesthetized with 1% isoflurane and kept under anesthesia throughout the whole procedure. A CT image was acquired first (approx. 5 min). After the CT, 5 mCi in 8 mL of saline of [^18F]3-F-4-AP was infused as a bolus through the cubital vein. Scans were obtained in list mode and reconstructed with a 3D ordinary Poisson OSEM algorithm as 30 frames of data (2 × 15 secs, 4 × 30 secs, 8 × 60 secs, 8 × 120 secs, 8 × 240 secs). All activities were decay-corrected to the time of injection of the radiopharmaceutical. Reconstructed images were processed using VivoQuant. ROIs for the major organs were hand drawn based on the CT and used to calculate time-activity curves.
Focused high-resolution brain imaging in Rhesus macaques: brain PET imaging was carried out on a Siemens HRRT PET scanner. Monkeys were sedated with ketamine and intubated. Following intubation monkeys were placed in prone position on the scanner bed face forward with their head immobilized in a stereotaxic frame. The animals were then anesthetized with 1% isoflurane and kept under anesthesia throughout the whole procedure. Monkeys received 5 mCi of [^18F]3-F-4-AP as a bolus through the cubital vein. Scans were obtained in list mode and reconstructed with a 3D ordinary Poisson OSEM algorithm as […] frames of data (8 × 15 secs, 8 × 30 secs, 16 × 60 secs, 16 × 120 secs, 16 × 240 secs). All activities were decay-corrected to the time of injection of the radiopharmaceutical. Reconstructed images were processed using VivoQuant. The Rhesus brain atlas from VivoQuant was fitted to the data and used to calculate time-activity curves for 43 different brain regions.

Data set [7] can be described thus: in vitro. The following applies: mouse, microsomes.
Data set [8] is described as follows: Stability in mouse plasma. The following applies: after 1 h.
Data set [9] can be described thus: Parallel artificial membrane permeability assay (PAMPA).

Chain of non-inactivating Shaker channel from D. melanogaster (P08510 other isoform, or with tags, fused parts or gaps DEL6-46): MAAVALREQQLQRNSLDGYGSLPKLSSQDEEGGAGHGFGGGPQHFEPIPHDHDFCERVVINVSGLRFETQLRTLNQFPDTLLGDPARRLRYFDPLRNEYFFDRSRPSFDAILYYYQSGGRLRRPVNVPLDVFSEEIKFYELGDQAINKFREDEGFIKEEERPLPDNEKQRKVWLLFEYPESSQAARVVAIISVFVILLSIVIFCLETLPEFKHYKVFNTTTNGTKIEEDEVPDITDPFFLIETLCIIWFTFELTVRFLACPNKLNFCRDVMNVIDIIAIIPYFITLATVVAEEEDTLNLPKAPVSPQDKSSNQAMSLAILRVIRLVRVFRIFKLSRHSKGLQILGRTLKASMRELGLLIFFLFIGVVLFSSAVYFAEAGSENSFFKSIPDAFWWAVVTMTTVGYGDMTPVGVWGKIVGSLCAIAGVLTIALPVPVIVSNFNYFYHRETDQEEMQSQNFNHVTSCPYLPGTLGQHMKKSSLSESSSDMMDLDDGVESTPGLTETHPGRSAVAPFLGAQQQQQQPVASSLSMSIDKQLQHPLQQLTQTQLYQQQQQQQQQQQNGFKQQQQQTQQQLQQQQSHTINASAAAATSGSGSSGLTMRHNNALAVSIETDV

Turning to `Nc1ccncc1F` [3-F-4-AP, 3-fluoro-4-aminopyridine], the IC50 in data set [1] came to 250 µM. Further, the EC50 in [2] is 96 µM. For the same molecule, the pH-dependent lipophilicity (logD) in data set [3] came to 0.63. Besides, the “signs of neuroexcitation, summary in words relative to 4-AP” value in data set [4] was “active at the same concentration as 4-AP and to act faster”. In addition, the “effect of high doses of non-radiolabeled drug (self-block)” value in [5] was “caused the breathing rate to increase dramatically, possibly due to seizures”. Further, in data set [6] (Rhesus macaques, 0.1 mg/kg), the “effect of cold drug (self-block) on brain signal” value was “no changes in brain signal or time activity curves were detected”. In addition, in data set [6] (estimated based on the rodent data), the “estimated seizure dose in monkeys” value is 1.5 to 3.0 mg/kg. Further, the half-life in data set [7] stood at 2.4 ± 0.183 h. Further, the remaining in plasma in data set [8] is above 90%. In data set [9] (PAMPA), this molecule showed a Papp of 1.56 ± 0.06 ×10⁻⁶ cm/s. Moreover, the “times more permeable than 4-AP” value in data set [9] (ratio of Pe) is 6.6 times.

By logD is commonly meant the decadic logarithm of the distribution of all forms, ionised or not, between an organic phase and buffer at a given pH. By half-life is commonly meant how long it takes for the measured level to halve. A low value points to fast loss. What is called Papp is a coefficient for how fast a substance crosses the barrier. Read a low Papp as poor permeation.
